row,SMILES,melting point
1,C[C@@H](Nc1ncnc2ccncc12)c1ccccc1,138 °C
2,O=C(NCCCCCCOC(=O)N1CCC2(CCCC2)CC1)OC1CCN(C(=O)Oc2ccc3oc4ccccc4c3c2)CC1,100 to 102 °C
3,O=C1NCCn2c1cc1c2CCCC1,207 to 209 °C
4,NCc1ccccc1C1CCN(c2nc3c(cc2F)c(=O)c(C(=O)O)cn3C2CC2)C1 (configuration not stated),226 to 228 °C
5,O=C(/C=C/c1ccccc1)NCCC1CCN(Cc2ccccc2)CC1,125 to 127 °C
6,OC1=NN(c2cc(-c3ccnc(Nc4cccc(Cl)c4)n3)ccn2)CC1,222 to 226 °C
7,COc1cc(C(=O)NS(=O)(=O)c2ccccc2C)ccc1Cc1cn(C)c2ccc(CC(C)C(=O)NCC3CCCC3)cc12 (configuration not stated),119 to 126 °C
8,CS(=O)c1ccc(C(=O)CCCCC#N)cc1 (configuration not stated),89.5 to 91.5 °C
9,CC(Oc1cccc(Cl)c1)c1ccnc2ncnn12 (configuration not stated),124 to 126 °C
10,CCN(CC)CCSC1=C(C#N)C(c2ccccn2)(c2ccccn2)C(=O)N1,135 to 136 °C
11,CCOC(=O)C(Oc1ccc(C(=O)CBr)cc1)C(=O)OCC,55 to 58 °C
12,Cn1cc(C=CC(=O)NC2CC2)c([N+](=O)[O-])n1,183 to 185 °C
13,CC12CC=C3C(CCC4(CCC#N)CC(O[Si](C)(C)C(C)(C)C)CCC34C)C1CCC2O[Si](C)(C)C(C)(C)C (configuration not stated),194 to 195 °C
14,Clc1ncc(Br)n2nc(SCc3ccccc3)nc12,109 to 110 °C
15,CC(C)NCC(O)COc1ccc2c(=O)cc(-c3cc(OCc4ccccc4)cc(OCc4ccccc4)c3)oc2c1 (configuration not stated),173 to 174 °C
16,CC(C)(C)OC(=O)NCCn1c(=S)[nH][nH]c(=O)c1=O,160 °C
17,O=c1oc(-c2ccc3c(c2)OCCO3)cc(O)c1SCc1ccccc1,192 to 193 °C
18,COc1ccc2cccc(C#N)c2c1,62 to 66 °C
19,O=C(O)CCC(O)c1ccc(-c2ccc(Cl)cc2)o1 (configuration not stated),100 to 101 °C
20,CC(C)(C)C1=CC(C=O)(C(C)(C)C)NN1 (configuration not stated),216 to 219 °C
21,Cc1nc(C[C@H]2CC[C@@](C)(NCC(=O)N3C[C@@H](F)C[C@H]3C#N)C2(C)C)no1,121 to 123 °C
22,CC(C)Cc1ccc2sc3cc(CC(=O)O)ccc3c2c1,133 to 135 °C
23,O=C(CCO)N[C@H]1CC[C@H](CCN2CCC(c3cccc4c3CCO4)CC2)CC1,158 °C

row,SMILES,melting point
1,CCOC(=O)CCc1ccc2c(c1)CC(NC(=O)OC(C)(C)C)CC2 (configuration not stated),100 to 102 °C
2,CC(C)(SCC(=O)O)c1ccc2c(c1)OCO2,78.5 to 80 °C
3,COc1ccc2[nH]c(S(=O)Cc3ncc(C)c(N4CCCC4)c3Cl)nc2c1 (configuration not stated),145 to 146 °C
4,OCc1cccc(-c2ncc(OCCN3CCOCC3)cn2)c1,101 to 102 °C
5,COc1ccc(-c2nnc(NC3CCN(Cc4ccccc4)CC3)c3cc(OC)cc(OC)c23)cc1,168 °C
6,O=C1c2ccccc2C(=O)N1CCCSc1ccccc1,83 to 85 °C
7,CC1(C)C2CCC1(C(=O)P(=O)(c1ccccc1)c1ccccc1)C(=O)C2=O (configuration not stated),92.1 °C
8,COc1cc(OCc2ccc3c(c2)C(C)(C)CCC3(C)C)ccc1C(=O)OCc1ccccc1,112 to 113 °C
9,CSc1ncc(C(C)c2cccnc2)c(=O)[nH]1 (configuration not stated),201 to 204 °C
10,COC(=O)C(=O)NC1CC(C)(C)N(OC2CCCCC2)C(C)(C)C1,124 to 126 °C
11,COC(=O)C1N(c2c(C)cccc2C)C(=N)C(C)N1c1c(C)cccc1C (configuration not stated),141 to 142 °C
12,CN(CCC(=O)C(Cc1ccccc1)NC(=O)c1ccccc1)C(=O)N1CCCC1C(=O)O (configuration not stated),38 to 68 °C
13,COc1nc(OC)c(C(C)C)c(C(=O)c2cc(C)cc(C=CC#N)c2)n1,144 to 145 °C
14,COc1ccc(C(=O)C(=O)c2ccncc2)cc1OC1CCCC1,117 to 119 °C
15,COC(=O)CC[C@H](NC(=O)c1ccc(CCn2cnc3nc(NC(=O)C(C)(C)C)cc-3c2O)cc1)C(=O)OC,247 °C
16,CCOC(=O)c1nnc(-c2cc3cc(Oc4ccc(S(C)(=O)=O)cc4)cc(OCc4ccccc4)c3[nH]2)s1,194 to 195 °C
17,Cc1nc2ccc3c(c2o1)OC(CN1C2CCC1CC(O)(c1cccc(C(F)(F)F)c1)C2)CO3 (configuration not stated),148 to 150 °C
18,N#Cc1c(N2CCCCC2)cc(-c2ccc3ccc4cccc5ccc2c3c45)c2c1Cc1ccccc1-2,168 to 169 °C
19,O=[N+]([O-])c1ccc(NS(=O)(=O)c2ccccc2)c(Cl)c1,155 to 157 °C
20,CCCCCCCCCCCCCCCCCCC(NC(C)=O)(C(=O)OCC)C(=O)OCC,70 to 71 °C
21,CCCc1c(OCCCOc2ccc(C(=O)OCC)cc2)ccc(C(C)=O)c1O,86 to 87 °C
22,ON=C1c2ccccc2CCC1c1ccccc1 (configuration not stated),156 to 157 °C
23,COc1ccc(S(=O)(=O)Nc2cc(Cl)ccc2/C=C/c2ccncc2)cc1,190 to 193 °C

row,SMILES,melting point
1,COc1ccc2c(c1)C1=NNC(c3ccncc3)C1CCC2 (configuration not stated),162 to 166 °C
2,COC(=O)C(=O)Nc1ccccc1C(C)(C)C,61.7 to 63.6 °C
3,COC(=O)C(c1cccc(Br)c1)c1ncnc2cc(OC)c(OC)cc12 (configuration not stated),167 to 168 °C
4,CCOC(=O)c1ncc2[nH]c3cccc(Oc4ccc(Cl)cc4)c3c2c1COC,207 °C
5,O=S(=O)(O)CCCNc1cccc(O)c1,> 250 °C
6,CC(C)(C)c1ccc(NC(=O)c2ccc(C#N)cc2)cc1,210 to 211 °C
7,CNc1nc2ncnn2c(NC2CCCC2)c1-c1ccccc1,158 to 160 °C
8,CN(C)c1ccc(C=NC2CCCCC2N=Cc2ccc(O)cc2O)c(O)c1 (configuration not stated),202 °C
9,Nc1cccc(-c2ccnc3c(Br)cnn23)c1,120 to 121 °C
10,CCc1nc2c(N)nc3c(c2n1CCCCS(=O)(=O)NC)CCCC3,166 to 170 °C
11,COc1ccc(C(=O)Nc2ccc(OCc3ccccc3)cc2N)cc1C12CC3CC(CC(C3)C1)C2,185 °C
12,Cc1cc(C)n(-c2nnc(-c3ccc(Cl)cc3)c(C)n2)n1,151 to 152 °C
13,COC(=O)C1CN1C(C)=O (configuration not stated),39 to 40 °C
14,Cc1cc(-c2ccccc2C)ccc1NC(=O)c1ccc2n1Cc1ccccc1N(C(=O)COc1ccc(Cl)cc1)C2,159 to 161 °C
15,CCN(CC)C(=S)SCc1ccccc1CSC(=S)N(CC)CC,78 to 80 °C
16,CCC(=O)c1ccsc1N(C)C(C)=O,78.5 to 79.5 °C
17,Cc1cn(CC(=O)N(CCNC(=O)OC(C)(C)C)CC(=O)Oc2c(F)c(F)c(F)c(F)c2F)c(=O)[nH]c1=O,174 to 176 °C
18,O=C(O)Cc1cc(C(=O)c2ccccc2Cl)ccc1O,148 °C
19,Cc1c(-c2cnccn2)ssc1=S,164 °C
20,COC(=O)C(C)(N)Cc1c[nH]c2ccc(OC)cc12 (racemic),131 to 132 °C
21,CCCc1cc(O)cc2nc(-c3ccc(O)cc3)oc12,110 to 112 °C
22,CC(C)(C)COc1nc(N2CCNCC2)nc(N2CCS(=O)CC2)c1[N+](=O)[O-],156 to 158 °C

# The next lines start with the values.
row,melting point,SMILES
1,178 to 180 °C,COC(=O)c1cc2cc(Cl)c(Cl)cc2nc1Cl
2,97 to 99 °C,Cn1c(C(F)(F)F)cc(=O)n(-c2cc(OC=O)c(Cl)cc2F)c1=O
3,153 to 154 °C,CCN(CC)C(=O)n1cc(Cc2ccc(C(=O)NS(=O)(=O)c3ccccc3C)cc2OC)c2cc(C(=O)NCC(C)CC(F)(F)F)ccc21 (configuration not stated)
4,227 °C,CC(C)(CO)NS(=O)(=O)c1cccc(NC(=O)c2cnn3c(C(F)(F)F)cc(-c4ccc(C(F)(F)F)cc4)nc23)c1
5,178 to 184 °C,CS(=O)(=O)c1cccc(C(=O)Nc2ccc(-n3nc(C(F)(F)F)cc3C3CC3)cc2)c1
6,156 to 158 °C,O=C(CCC(=O)c1ccc(F)cc1)Nc1ccc(-n2nc(C(F)(F)F)cc2C(F)(F)F)cc1
7,136 to 138 °C,CC(C(=O)c1c(O)c2cccnc2n(-c2cccc(OC(F)(F)F)c2)c1=O)c1ccccc1 (configuration not stated)
8,159 to 161 °C,CC(=O)c1cccc2c(=O)c(C)c(-c3ccccc3)oc12
9,104 °C,Cc1cc(OC(F)(F)F)ccc1NC(=O)c1cccc(I)c1C(=O)NC(C)CC(=O)N(C)C (configuration not stated)
10,140 to 141 °C,CC=Cc1c(NC(=O)C(F)(F)F)ccc2c(=O)cc(C(=O)OCC)oc12
11,81 to 82 °C,CCC(CC)c1nn(-c2ccc(C(F)(F)F)nn2)cc1CCCOc1c(CC(=O)O)cccc1OC
12,172 to 175 °C,O=C(Nc1ccc(SC(F)(F)F)cc1)c1cc(Cl)c2ccccc2c1O
13,169 to 170 °C,OC(c1cc(F)ccc1F)c1ccncc1Cl (configuration not stated)
14,112 to 113 °C,O=C(Nc1cc([N+](=O)[O-])ccc1F)C(F)(F)F
15,194 to 195 °C,O=S(=O)(c1cccs1)N(CC(F)(F)F)c1cccc2cc(-c3nccs3)[nH]c12
16,> 350 °C,Cc1ccc2[nH]c(=O)n3c(=O)[nH]nc3c2c1C
17,171 to 173 °C,COc1cc(OC)cc(-n2c(-c3ccccc3F)cc(=O)c(C)c2-c2ccc(F)cc2F)c1
18,48 to 49 °C,Cc1cc(OCc2ccccc2)c(C)cc1C=O
19,74 to 75 °C,CCOC(=O)c1nc(-c2ccc(Cl)c(OC)c2F)cc(N)c1Cl
20,105 to 106 °C,CCCc1nn(-c2ccc(C(F)(F)F)cn2)cc1CCCOc1c(F)cccc1CC(=O)O
21,160 to 162 °C,Cc1ccc(NC(=O)c2ccc(CN3CCOCC3)c(C(F)(F)F)c2)cc1-c1ccc2cnncc2c1
22,175 °C,CC(=O)OCc1cc(=O)c(Oc2ccc(F)cc2F)c(-c2ccc(S(C)(=O)=O)cc2)o1
23,218 to 220 °C,CN1CC[C@@H](c2c(O)cc(O)c3c(=O)cc(-c4cccc(F)c4)oc23)[C@@H]1CO
24,245 to 246 °C,CN(c1cc(OC(F)(F)F)cc2cc(C(=O)O)[nH]c12)S(=O)(=O)c1cccs1
25,96 °C,Cc1cc(-n2ccnc2)c2cccc(OCc3c(Cl)ccc(S(=O)(=O)N4CCC[C@H]4C(=O)NCCCN4CCOCC4)c3Cl)c2n1
26,124 to 126 °C,CCCCc1nn(-c2ccccc2C(F)(F)F)c(=O)[nH]1
27,141 to 144 °C,CCOC(=O)c1cc2c3cc4ccccc4cc3ccc2n1C
28,143 to 153 °C,N#Cc1cnc2cc(Cl)c([N+](=O)[O-])cc2c1Cl
29,191 to 197 °C,O=c1c2c([nH]n1-c1c(F)cc(Cl)c3nc(Cl)sc13)CCCC2

# — a melting point compilation (Tetko et al.; mined from patent text by program, amines drawn as free bases though some values may be those of a salt)
